According to patent US20080234262A1 (Wyeth, priority 2007, published 2008):

Tests used:
PI3K = PI3K (Homo sapiens, UniProt P42336); experiment: Fluorescence polarization assay for PI3K; format: biochemical; settings: PI3Kα; read-out: PI3Kα IC50;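 further: PI3K kinase reaction on PIP2 with ATP, 30-60 min, product sensed by GST-GRP with red probe in fluorescence polarization (mP), controls without enzyme and at zero time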
prostate line LNCap = experiment: In vitro cell culture growth assay (MTS), LNCap; format: cell-based, human; settings: LNCap cells, three days after drug treatment
breast line MDA468 = experiment: In vitro cell culture growth assay (MTS), MDA468; format: cell-based, human; settings: MDA468 cells, three days after drug treatment
In short: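 Cells were plated and, one day later, exposed to inhibitors for three days; viable cell density was then measured by metabolic conversion of MTS dye, read as absorbance at 490 nm. Growth is expressed as percent of vehicle-treated control cells on the same plate.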

Sequence of PI3K (P42336 whole entry): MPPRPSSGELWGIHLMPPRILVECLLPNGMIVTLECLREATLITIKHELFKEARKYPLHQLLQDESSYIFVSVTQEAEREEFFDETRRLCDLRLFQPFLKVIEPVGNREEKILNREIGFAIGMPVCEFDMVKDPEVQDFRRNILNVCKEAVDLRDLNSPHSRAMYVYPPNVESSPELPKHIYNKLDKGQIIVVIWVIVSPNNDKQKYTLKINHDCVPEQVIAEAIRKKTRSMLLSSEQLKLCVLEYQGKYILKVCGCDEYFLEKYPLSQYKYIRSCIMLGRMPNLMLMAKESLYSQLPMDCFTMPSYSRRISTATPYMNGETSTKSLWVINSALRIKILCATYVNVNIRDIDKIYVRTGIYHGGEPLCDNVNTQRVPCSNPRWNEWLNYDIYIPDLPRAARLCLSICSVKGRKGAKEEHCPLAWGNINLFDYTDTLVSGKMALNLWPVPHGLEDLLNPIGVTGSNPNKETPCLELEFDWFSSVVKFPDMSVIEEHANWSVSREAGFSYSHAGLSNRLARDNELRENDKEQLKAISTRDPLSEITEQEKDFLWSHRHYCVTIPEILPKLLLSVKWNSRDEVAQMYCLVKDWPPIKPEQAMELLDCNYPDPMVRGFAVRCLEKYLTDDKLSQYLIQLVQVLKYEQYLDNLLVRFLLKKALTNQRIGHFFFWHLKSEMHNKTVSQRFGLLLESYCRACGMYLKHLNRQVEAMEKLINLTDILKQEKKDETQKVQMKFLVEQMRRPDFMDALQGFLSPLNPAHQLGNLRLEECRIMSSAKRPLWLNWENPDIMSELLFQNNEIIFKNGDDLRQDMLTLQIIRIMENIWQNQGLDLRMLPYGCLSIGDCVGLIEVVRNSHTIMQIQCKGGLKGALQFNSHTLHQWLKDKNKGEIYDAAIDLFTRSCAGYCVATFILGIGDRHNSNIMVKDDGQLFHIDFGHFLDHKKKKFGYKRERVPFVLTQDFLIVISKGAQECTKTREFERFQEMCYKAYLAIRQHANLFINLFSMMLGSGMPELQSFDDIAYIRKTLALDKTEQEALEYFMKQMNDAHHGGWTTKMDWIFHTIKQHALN
Sequence of PI3K (P27986 whole entry partner): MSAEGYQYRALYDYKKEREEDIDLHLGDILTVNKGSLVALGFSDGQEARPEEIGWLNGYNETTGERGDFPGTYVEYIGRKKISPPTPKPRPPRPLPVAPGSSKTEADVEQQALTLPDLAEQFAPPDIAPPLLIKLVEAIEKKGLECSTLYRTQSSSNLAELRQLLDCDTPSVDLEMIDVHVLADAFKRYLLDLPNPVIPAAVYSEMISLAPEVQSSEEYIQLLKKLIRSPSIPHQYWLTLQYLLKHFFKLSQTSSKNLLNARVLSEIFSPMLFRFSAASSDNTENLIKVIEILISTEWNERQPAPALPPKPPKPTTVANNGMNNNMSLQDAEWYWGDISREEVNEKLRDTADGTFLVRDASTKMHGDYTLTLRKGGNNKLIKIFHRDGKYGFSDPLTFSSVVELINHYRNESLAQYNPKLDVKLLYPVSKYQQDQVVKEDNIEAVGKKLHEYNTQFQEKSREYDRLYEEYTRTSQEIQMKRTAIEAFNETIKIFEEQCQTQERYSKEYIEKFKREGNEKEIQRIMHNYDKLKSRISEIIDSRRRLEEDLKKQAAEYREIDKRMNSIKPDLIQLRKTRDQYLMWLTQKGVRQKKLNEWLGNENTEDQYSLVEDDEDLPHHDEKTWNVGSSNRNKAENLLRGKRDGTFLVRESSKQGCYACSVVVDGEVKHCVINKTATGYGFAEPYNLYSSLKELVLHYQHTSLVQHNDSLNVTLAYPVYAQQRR

| SMILES | IC50 (PI3K) | IC50 (prostate line LNCap; Homo sapiens, LNCaP, 72 h) | IC50 (breast line MDA468; Homo sapiens, 72 h) | IC50 (prostate line LNCap) | IC50 (breast line MDA468) |
| --- | --- | --- | --- | --- | --- |
| CNC(=O)Nc1ccc(-c2nc(N3CCOCC3)c3cnn(C4CCN(C(=O)c5ccc(Cl)cc5)CC4)c3n2)cc1 [Example 362, 1-(4-{1-[1-(4-chlorobenzoyl)piperidin-4-yl]-4-morpholin-4-yl-1H-pyrazolo[3,4-d]pyrimidin-6-yl}phenyl)-3-methylurea] | 42 nM | 52 nM | 400 nM | – | – |
| CC(=O)Nc1ccc(-c2nc(N3CCOCC3)c3cn[nH]c3n2)cc1 [Compound 233, N-[4-(4-morpholin-4-yl-1H-pyrazolo[3,4-d]pyrimidin-6-yl)phenyl]acetamide] | 443 nM | 3700 nM | 8500 nM | – | – |
| CNC(=O)N1CCC(n2ncc3c(N4CCOCC4)nc(-c4ccc(NC(=O)OC)cc4)nc32)CC1 [Compound 813, methyl (4-{1-[1-(methylcarbamoyl)piperidin-4-yl]-4-morpholin-4-yl-1H-pyrazolo[3,4-d]pyrimidin-6-yl}phenyl)carbamate] | 1960 nM | 2250 nM | 4400 nM | – | – |
| CN(C)CCNC(=O)c1ccc(-c2nc(N3CCOCC3)c3cnn(-c4ccccc4)c3n2)cc1 [Compound 103] | 580 nM | 3900 nM | 5000 nM | – | – |
| CNC(=O)Nc1ccc(-c2nc(N3CCOCC3)c3cnn(C4CCN(CC#N)CC4)c3n2)cc1 [Compound 793, 1-(4-{1-[1-(cyanomethyl)piperidin-4-yl]-4-morpholin-4-yl-1H-pyrazolo[3,4-d]pyrimidin-6-yl}phenyl)-3-methylurea] | 76 nM | 1010 nM | 1200 nM | – | – |
| CC(C)C(=O)N1CCC(n2ncc3c(N4CCOCC4)nc(-c4ccc(NC(=O)Nc5ccccn5)cc4)nc32)CC1 [Compound 827, 1-{4-[1-(1-isobutyrylpiperidin-4-yl)-4-morpholin-4-yl-1H-pyrazolo[3,4-d]pyrimidin-6-yl]phenyl}-3-pyridin-2-ylurea] | 2260 nM | 600 nM | 16000 nM | – | – |
| c1ccc(-n2ncc3c(N4CCOCC4)nc(-c4cc5ccccc5s4)nc32)cc1 [Compound 113] | 2170 nM | 22000 nM | 23000 nM | – | – |
| CNCCNC(=O)Nc1ccc(-c2nc(N3CCOCC3)c3cnn(C4CCN(Cc5cccnc5)CC4)c3n2)cc1 [Compound 589, 1-[2-(methylamino)ethyl]-3-(4-{4-morpholin-4-yl-1-[1-(pyridin-3-ylmethyl)piperidin-4-yl]-1H-pyrazolo[3,4-d]pyrimidin-6-yl}phenyl)urea] | 29 nM | 1200 nM | 1100 nM | – | – |
| Oc1cccc(-c2nc(N3CCOCC3)c3cnn(CCN4CCCCC4)c3n2)c1 [Compound 126] | 60 nM | 3300 nM | 13000 nM | – | – |
| CNC(=O)Nc1ccc(-c2nc(N3CCOCC3)c3cnn(C4CCN(C(=O)SC)CC4)c3n2)cc1 [Compound 761, S-methyl 4-(6-{4-[(methylcarbamoyl)amino]phenyl}-4-morpholin-4-yl-1H-pyrazolo[3,4-d]pyrimidin-1-yl)piperidine-1-carbothioate] | 72 nM | 50 nM | 120 nM | – | – |
| COc1ccc(C(=O)N2CCC(n3ncc4c(N5CCOCC5)nc(-c5cccc(O)c5)nc43)CC2)cc1 [Compound 28, 3-{1-[1-(4-methoxybenzoyl)piperidin-4-yl]-4-morpholin-4-yl-1H-pyrazolo[3,4-d]pyrimidin-6-yl}phenol] | 33 nM | 220 nM | 1100 nM | – | – |
| O=C1COCCN1c1nc(-c2cccc(O)c2)nc2c1cnn2-c1ccccc1 [Compound 727, 4-[6-(3-hydroxyphenyl)-1-phenyl-1H-pyrazolo[3,4-d]pyrimidin-4-yl]morpholin-3-one] | 11000 nM | 55000 nM | > 60000 nM | – | – |
| CNC(=O)Nc1ccc(-c2nc(N3CCOCC3)c3cnn(C4CCN(C(=O)c5cccc(C(C)=O)c5)CC4)c3n2)cc1 [Example 423, 1-(4-{1-[1-(3-acetylbenzoyl)piperidin-4-yl]-4-morpholin-4-yl-1H-pyrazolo[3,4-d]pyrimidin-6-yl}phenyl)-3-methylurea] | 83 nM | 110 nM | 200 nM | – | – |
| O=C(Nc1ccncc1)Nc1ccc(-c2nc(N3CCOCC3)c3cnn(C4CCN(Cc5cccnc5)CC4)c3n2)cc1 [Example 340, 1-(4-{4-morpholin-4-yl-1-[1-(pyridin-3-ylmethyl)piperidin-4-yl]-1H-pyrazolo[3,4-d]pyrimidin-6-yl}phenyl)-3-pyridin-4-ylurea] | 13 nM | 28 nM | 100 nM | – | – |
| Nc1ccc(-c2nc(N3CCOCC3)c3cnn(C4CCN(C(=O)c5cccnc5)CC4)c3n2)nc1 [Compound 435, 6-{4-morpholin-4-yl-1-[1-(pyridin-3-ylcarbonyl)piperidin-4-yl]-1H-pyrazolo[3,4-d]pyrimidin-6-yl}pyridin-3-amine] | 4040 nM | 45000 nM | 60000 nM | – | – |
| Oc1cccc(-c2nc(N3CCOCC3)c3cnn(C4CCN(Cc5ccc[nH]5)CC4)c3n2)c1 [Example 14] | 20 nM | 110 nM | 600 nM | – | – |

| SMILES | IC50 (PI3K) | IC50 (prostate line LNCap; Homo sapiens, LNCaP, 72 h) | IC50 (breast line MDA468; Homo sapiens, 72 h) | IC50 (prostate line LNCap) | IC50 (breast line MDA468) |
| --- | --- | --- | --- | --- | --- |
| CN(C)S(=O)(=O)c1cccc(-c2nc(N3CCOCC3)c3cnn(C4CCN(Cc5ccccc5)CC4)c3n2)c1 [Example 69] | 10500 nM | 3100 nM | 4000 nM | – | – |
| CCCOC(=O)N1CCC(n2ncc3c(N4CCOCC4)nc(-c4ccc(NC(=O)NCC5CC5)cc4)nc32)CC1 [Compound 858, propyl 4-[6-(4-{[(cyclopropylmethyl)carbamoyl]amino}phenyl)-4-morpholin-4-yl-1H-pyrazolo[3,4-d]pyrimidin-1-yl]piperidine-1-carboxylate] | 2150 nM | 800 nM | 3200 nM | – | – |
| O=C(Nc1ccc(-c2nc(N3CCOCC3)c3cnn(C4CCN(Cc5cccnc5)CC4)c3n2)cc1)Nc1ccsc1 [Compound 375, 1-(4-{4-morpholin-4-yl-1-[1-(pyridin-3-ylmethyl)piperidin-4-yl]-1H-pyrazolo[3,4-d]pyrimidin-6-yl}phenyl)-3-(3-thienyl)urea] | 10 nM | 34 nM | 100 nM | – | – |
| Brc1ccc(CN2CCC(n3ncc4c(N5CCOCC5)nc(-c5ccc6[nH]ccc6c5)nc43)CC2)cn1 [Example 173, 1-{1-[(6-bromopyridin-3-yl)methyl]piperidin-4-yl}-6-(1H-indol-5-yl)-4-morpholin-4-yl-1H-pyrazolo[3,4-d]pyrimidine] | 262 nM | 1200 nM | 2700 nM | – | – |
| CCNC(=O)Nc1ccc(-c2nc(N3CCOCC3)c3cnn(C4CCN(C(=O)c5cccnc5)CC4)c3n2)cc1 [Compound 552, 1-ethyl-3-(4-{4-morpholin-4-yl-1-[1-(pyridin-3-ylcarbonyl)piperidin-4-yl]-1H-pyrazolo[3,4-d]pyrimidin-6-yl}phenyl)urea] | 434 nM | 60 nM | 180 nM | – | – |
| CC(C)(C)OC(=O)N1CCC(n2ncc3c(N4CCOCC4)nc(-c4ccc(NC(=O)Nc5ccccc5)cc4)nc32)CC1 [Compound 768, tert-butyl 4-(6-{4-[(anilinocarbonyl)amino]phenyl}-4-morpholin-4-yl-1H-pyrazolo[3,4-d]pyrimidin-1-yl)piperidine-1-carboxylate] | 74 nM | 205 nM | 710 nM | – | – |
| C=CCONC(=O)Nc1ccc(-c2nc(N3CCOCC3)c3cnn(-c4ccccc4)c3n2)cc1 [Compound 296, 1-(allyloxy)-3-[4-(4-morpholin-4-yl-1-phenyl-1H-pyrazolo[3,4-d]pyrimidin-6-yl)phenyl]urea] | 896 nM | 3000 nM | 60000 nM | – | – |
| CCOC(=O)N1CCC(n2ncc3c(N4CCOC[C@H]4C)nc(-c4ccc(NC(=O)Nc5cccnc5)cc4)nc32)CC1 [Compound 892, ethyl 4-(4-[(3R)-3-methylmorpholin-4-yl]-6-{4-[(pyridin-3-ylcarbamoyl)amino]phenyl}-1H-pyrazolo[3,4-d]pyrimidin-1-yl)piperidine-1-carboxylate] | 453 nM | 0.8 nM | 70 nM | – | – |
| CNC(=O)Nc1ccc(-c2nc(N3CCOCC3)c3cnn(C4CCN(C(=O)c5cccc(C(C)=O)c5)CC4)c3n2)cc1 [Compound 667, 1-(4-{1-[1-(3-acetylbenzoyl)piperidin-4-yl]-4-morpholin-4-yl-1H-pyrazolo[3,4-d]pyrimidin-6-yl}phenyl)-3-methylurea] | 83 nM | – | – | 110 nM | 150 nM |
| CNC(=O)Nc1ccc(-c2nc(N3CCOCC3)c3cnn(C4CCN(C(=O)c5ccc(Cl)nc5)CC4)c3n2)cc1 [Example 424, 1-[4-(1-{1-[(6-chloropyridin-3-yl)carbonyl]piperidin-4-yl}-4-morpholin-4-yl-1H-pyrazolo[3,4-d]pyrimidin-6-yl)phenyl]-3-methylurea] | 84 nM | 150 nM | 400 nM | – | – |
| O=C(Nc1ccc(-c2nc(N3CCOCC3)c3cnn(-c4ccccc4)c3n2)cc1)C1CCNCC1 [Compound 140] | 131 nM | 2900 nM | 1300 nM | – | – |
| O=C(c1ccc(F)nc1)N1CCC(n2ncc3c(N4CCOCC4)nc(-c4ccc5[nH]ccc5c4)nc32)CC1 [Compound 201] | 2020 nM | 740 nM | 3000 nM | – | – |
| CCn1nc(C#CCO)c2c(N3CCOCC3)nc(-c3ccc(NC(=O)Nc4cccnc4)cc3)nc21 [Compound 956, 1-{4-[1-ethyl-3-(3-hydroxyprop-1-yn-1-yl)-4-morpholin-4-yl-1H-pyrazolo[3,4-d]pyrimidin-6-yl]phenyl}-3-pyridin-3-ylurea] | 1.75 nM | 47 nM | 90 nM | – | – |
| O=C1CCCN1CCn1ncc2c(N3CCOCC3)nc(-c3cccc(O)c3)nc21 [Compound 164] | 230 nM | 5700 nM | 20000 nM | – | – |
| c1ccc(CN2CCC(n3ncc4c(N5CCOCC5)nc(-c5ccc(NCCN6CCOCC6)nc5)nc43)CC2)cc1 [Compound 193] | 8250 nM | 10000 nM | 12000 nM | – | – |
